Results reported in US6432962B1, “Benzophenones as inhibitors of IL-1β and TNF-α” (Leo Pharmaceutical Products Ltd. A/S, priority 2000, dated 2002).

Assays:
[1] = Log P of the tested compounds; type: physicochemical
[2] = tested on: IL-1β secretion, LPS stimulated peripheral blood mononuclear cells; assay: Inhibition of IL-1β secretion from LPS stimulated peripheral blood mononuclear cells; type: cell-based; conditions: LPS stimulated human PBMC, 18 hours, ELISA; read-out: Inhibition of cytokines in vitro, median inhibition concentration (IC50), IL-1β
Procedure: (§1) To study the effect of the compound of the present invention in vitro the inhibition of the IL-1β and TNF-α secretion was measured using the following procedure: Cytokine production was measured in the media from lipopolysaccharide (LPS) stimulated peripheral blood mononuclear cells. The mononuclear cells were isolated from human peripheral blood by Lymphoprep® (Nycomed, Norway) fractionation and suspended in RPMI 1640 (growth medium) with foetal calf serum (FCS, 2%), at a concentration of 5×10^5 cells/ml. The cells were incubated in 24-well tissue culture plates in 1 mL aliquots. Test compounds were dissolved in dimethylsulfoxide (DMSO, 10 mM) and were diluted with the medium. Compounds were added to the cells for 30 minutes, then LPS ([…] final concentration) was added. The plates were incubated for 18 hours, and the concentration of IL-1β and TNF-α in the medium was determined by enzyme-linked immunosorbent assays. The median inhibitory concentrations (IC50) of the compounds were calculated.

[3] = tested on: TNF-α secretion, LPS stimulated peripheral blood mononuclear cells; assay: Inhibition of TNF-α secretion from LPS stimulated peripheral blood mononuclear cells; type: cell-based; conditions: LPS stimulated human PBMC, 18 hours, ELISA; read-out: Inhibition of cytokines in vitro, median inhibition concentration (IC50), TNF-α
Procedure: as §1

[4] = molecular target: T1, p38α MAP kinase (Homo sapiens, UniProt Q16539); assay: p38α MAP kinase assay; type: biochemical; conditions: immunoprecipitated FLAG-p38α from COS-1 cells, GST-ATF-2 substrate; read-out: IC50 values for the inhibition of p38α MAP kinase, mean concentration
T1 construct: made in house; host or cells: COS-1 cells (transient co-transfection, anti-FLAG M2 immunoprecipitation)
Procedure: Transient Expression of COS-1 Cells
On day one COS-1 cells were seeded in 143 cm^2 petridish with a density of 2×10^4 cells/cm^2 in growth medium. At day 2 the cells were co-transfected with 5 μg (total) of experimental plasmid DNA, expressing the FLAG-p38α and FLAG-MKK6(EE). The plasmids were introduced into the COS-1 cells in serum-free medium using DOTAP™ (Boehringer-Mannheim, Mannheim, Germany). Plasmid DNA was prepared and purified using the QIAGEN EndoToxin-free Maxiprep-500 kit (Hilden, Germany). Briefly, DNA and DOTAP™ were mixed for exactly 15 min. at 37° C. in the CO2 incubator. The transfection-mixture was hereafter transferred to a 15-mL falcon-tube and transfection-medium (DMEM with L-Glutamine and Pen./Strep. but without serum) was added to the transfection-mixture, followed by addition to the cell-monolayer. After 4 hours of incubation with DOTAP™ and plasmids, the medium containing double amount of serum was added to the cells bringing the final concentration of serum up to 10%. […]
The reaction was allowed to proceed for 30 min. at 30° C., and it was stopped by adding 40 μl of 2×SDS-sample buffer to the kinase reaction. […] The dried SDS-PAGE gel was exposed to a Phospho-Imager screen and the radioactive PHAS-1 bands were quantified by the STORM860 Phospho-Imager (Molecular Dynamics, Sunnyvale, Calif., USA) using the ImageQuaNT software.

[5] = tested on: Human polymorphonuclear (PMN) granulocytes, superoxide anion generation; assay: Inhibition of PMN superoxide secretion (ferricytochrome C reduction); type: cell-based; conditions: human PMN primed with TNF-α, fMLP stimulated; read-out: Inhibition of PMN-superoxide production in vitro, median inhibition concentration (IC50)
Procedure: The compounds of the present invention also show similar activities in the ability to inhibit PMN (polymorphonuclear) superoxide secretion which is also indicative of potentially useful anti-inflammatory drugs. The compounds were tested using the following procedure: Human polymorphonuclear (PMN) granulocytes were isolated from human blood by dextran sedimentation, Lymphoprep® fractionation and hypotonic lysis of contaminating erythrocytes. Superoxide anion generation was measured as the superoxide dismutase inhibitable reduction of ferricytochrome C (Madhu, S. B. et al, Inflammation, 16, 241, (1992)). The cells were suspended in Hanks' balanced salt solution, and incubated for 10 minutes at 37° C. with test compounds. The cells were primed by the addition of TNF-α (3 ng/mL final concentration) for 10 minutes, and then ferricytochrome C, (final concentration 750 μg/mL), bovine serum albumin (BSA, final concentration 1 mg/mL) and formylmethionyl-leucyl-phenylalanine (fMLP, final concentration 10^-7 M) were added for 3 minutes. The cells were chilled on ice, and were spun down. The optical densities in the cell-free supernatant was measured in a spectrophotometer. The median inhibitory concentration (IC50) of the compounds was calculated.

T1 sequence (Q16539 whole entry): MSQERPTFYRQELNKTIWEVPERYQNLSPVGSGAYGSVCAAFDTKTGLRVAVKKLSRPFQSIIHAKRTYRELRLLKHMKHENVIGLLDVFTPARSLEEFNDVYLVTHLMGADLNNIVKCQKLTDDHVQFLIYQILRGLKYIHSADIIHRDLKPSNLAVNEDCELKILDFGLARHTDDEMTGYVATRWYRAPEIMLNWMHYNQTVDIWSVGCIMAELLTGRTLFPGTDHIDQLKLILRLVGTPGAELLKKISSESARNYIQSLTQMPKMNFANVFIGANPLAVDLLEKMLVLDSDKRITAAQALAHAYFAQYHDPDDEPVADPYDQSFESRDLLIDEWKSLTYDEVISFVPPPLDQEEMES

For `Cc1ccccc1C(=O)c1ccc(Nc2cncc3ccccc23)cc1Cl` [Compound 114, 2-Chloro-4-(4-isoquinolylamino)-2′-methylbenzophenone], the logP [1] was 4.2, the IC50 [2] was 0.031 µM and the IC50 [3] was 0.005 µM. For the same compound, the IC50 [4] was 0.0128 µM and the IC50 [5] was 0.015 µM.
With `Cc1ccccc1C(=O)c1ccc(Nc2c[n+]([O-])cc3ccccc23)cc1Cl` [Compound 128, 2-Chloro-4((4-isoquinolyl-N-oxide)amino)-2′-methylbenzophenone] the “Log P” value [1] was 4.4, the IC50 [2] was 0.0158 µM and the IC50 [3] was 0.0031 µM. The IC50 [5] was 0.0126 µM.
With `Cc1ccccc1C(=O)c1ccc(Nc2ccccc2N)cc1Cl` [Ref. comp., 4-(2-aminophenylamino)-2-chloro-2′-methylbenzophenone, reference compound] the logP [1] was 4.9, the IC50 [2] was 0.013 µM and the IC50 [3] was 0.0071 µM. For the same compound, the IC50 [5] was 0.005 µM.
